Key:
5-HT transporter = biological target: T1, 5-HT transporter (Rattus norvegicus, UniProt P31652); assay: 5-HT uptake inhibition in rat brain synaptosomes (medulla and pons), [3H]-5-HT; type: biochemical
T1 construct: from tissue; host or cells: rat brain synaptosomes (P2 fraction) from medulla and pons
Procedure, shortened: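 Freshly isolated P2 synaptosomes taken from rat hypothalamus (NA) or medulla/pons (5-HT) were incubated at room temperature under O2 with [3H]-NA for 7.5 min or [3H]-5-HT for 5 min. Uptake was measured as filter-retained radioactivity by scintillation counting.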

NA transporter = biological target: T2, NA transporter (Rattus norvegicus, UniProt Q63380); assay: noradrenalin uptake inhibition in rat brain synaptosomes (hypothalamus), [3H]-NA; type: biochemical
T2 construct: from tissue; host or cells: rat brain synaptosomes (P2 fraction) from hypothalamus
T2 sequence (Q63380 1-617): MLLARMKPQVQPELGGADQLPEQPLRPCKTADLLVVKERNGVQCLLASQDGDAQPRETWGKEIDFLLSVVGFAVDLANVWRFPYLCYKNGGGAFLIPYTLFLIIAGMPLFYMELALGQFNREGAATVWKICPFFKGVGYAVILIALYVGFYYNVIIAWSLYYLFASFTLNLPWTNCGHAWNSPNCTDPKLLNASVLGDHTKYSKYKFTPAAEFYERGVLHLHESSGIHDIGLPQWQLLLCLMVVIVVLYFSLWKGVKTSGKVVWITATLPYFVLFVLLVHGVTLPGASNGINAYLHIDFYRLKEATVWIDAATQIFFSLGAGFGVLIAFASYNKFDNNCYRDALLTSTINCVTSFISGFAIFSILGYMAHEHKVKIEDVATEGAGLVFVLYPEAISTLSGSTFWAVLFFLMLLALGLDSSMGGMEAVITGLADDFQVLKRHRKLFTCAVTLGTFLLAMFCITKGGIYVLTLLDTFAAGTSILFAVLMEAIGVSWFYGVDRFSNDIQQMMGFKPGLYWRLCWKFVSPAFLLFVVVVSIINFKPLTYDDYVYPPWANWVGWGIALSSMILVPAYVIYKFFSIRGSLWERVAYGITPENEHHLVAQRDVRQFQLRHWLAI
Excerpt: a) Method for Determining Noradrenalin and 5-HT Uptake Inhibition:
Synaptosomes from rat brain regions are freshly isolated for in vitro studies, as described in the publication “The isolation of nerve endings from brain” by E. G. Gray and V. P. Whittaker, J. Anatomy 96, pages 79-88, 1962. The corresponding literature description is hereby introduced as a reference and is deemed to be part of the disclosure.
The tissue (hypothalamus for the determination of noradrenalin uptake inhibition and medulla and pons for the determination of 5-HT uptake inhibition) is homogenised in ice-cooled 0.32 M sucrose (100 mg of tissue/1 mL) in a glass homogeniser with Teflon pestle using five complete up and down strokes at 840 revolutions/minute.
The homogenate is centrifuged at 4° C. for 10 minutes at 1000 g. After subsequent centrifugation at 17000 g for 55 minutes, the synaptosomes (P2 fraction) are obtained, which are resuspended in 0.32 M […] (0.5 mL/100 mg of original weight).
The particular uptake is measured in a 96-well microtitre plate. The volume is 250 μl and the incubation proceeds at room temperature (approx. 20-25° C.) under an O2 atmosphere.
The incubation time is 7.5 minutes for [^3H]-NA and 5 minutes for [^3H]-5-HT. The 96 samples are then filtered through a Unifilter GF/B® microtitre plate (Packard) and washed with 200 mL of incubated buffer using a “Brabdel MPXRI-96T Cell-Harvester”. The Unifilter GF/B plate is dried for 1 hour at 55° C. The plate is then sealed with a Back Seal® (Packard) and 35 μl of scintillation fluid are added per well (Ultima Gold®, Packard). After sealing with a top Seal® (Packard) and establishing an equilibrium (around 5 hours), radioactivity is determined in a “Trilux 1450 Microbeta” (Wallac).
The quantity of protein used in the above determination corresponds to the values known from the literature, as for example described in “Protein measurement with the folin phenol reagent”, Lowry et al., J. Biol. Chem., 193, 265-275, 1951.
A detailed description of the method may additionally be found in the literature, for example in M. Ch. Frink, H.-H. Hennies, W. Engelberger, M. Haurand and B. Wilffert (1996) Arzneim.-Forsch./Drug Res. 46 (III), 11, 1029-1036.

T1 sequence (P31652 whole entry): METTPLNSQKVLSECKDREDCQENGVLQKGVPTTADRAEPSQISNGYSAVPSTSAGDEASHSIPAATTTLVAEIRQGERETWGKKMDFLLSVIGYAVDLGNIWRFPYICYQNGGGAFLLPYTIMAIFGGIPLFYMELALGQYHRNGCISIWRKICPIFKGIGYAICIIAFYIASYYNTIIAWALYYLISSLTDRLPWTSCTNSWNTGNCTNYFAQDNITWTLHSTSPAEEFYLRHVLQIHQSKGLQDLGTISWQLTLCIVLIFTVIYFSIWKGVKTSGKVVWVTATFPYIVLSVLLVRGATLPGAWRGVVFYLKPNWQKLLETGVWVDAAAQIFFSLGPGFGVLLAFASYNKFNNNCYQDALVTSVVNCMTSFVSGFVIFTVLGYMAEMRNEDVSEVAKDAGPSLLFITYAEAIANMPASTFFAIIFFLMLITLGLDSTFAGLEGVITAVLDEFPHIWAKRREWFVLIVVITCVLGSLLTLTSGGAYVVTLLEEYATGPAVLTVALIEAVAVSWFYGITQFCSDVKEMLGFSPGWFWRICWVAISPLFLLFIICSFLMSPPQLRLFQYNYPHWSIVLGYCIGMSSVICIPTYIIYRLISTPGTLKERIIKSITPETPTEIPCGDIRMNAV

SMILES: O=C1OC2(CCN(C(=S)Nc3cc(Cl)ccc3Cl)CC2)CN1Cc1cccc(Br)c1 [Example 2, 3-(3-bromobenzyl)-2-oxo-1-oxa-3,8-diazaspiro[4.5]decane-8-carbothioic acid (2,5-dichlorophenyl)amide]
- inhibition at 10 µM (5-HT transporter): 60%
- inhibition at 10 µM (NA transporter): 64%

SMILES: COCCNC(=S)N1CCC2(CC1)CN(Cc1cccc(Br)c1)C(=O)O2 [Example 5, 3-(3-bromobenzyl)-2-oxo-1-oxa-3,8-diazaspiro[4.5]decane-8-carbothioic acid (2-methoxyethyl)amide]
- inhibition at 10 µM (NA transporter): 70%

SMILES: COc1ccccc1NC(=S)N1CCC2(CC1)CN(Cc1cccc(Br)c1)C(=O)O2 [Example 6, 3-(3-bromobenzyl)-2-oxo-1-oxa-3,8-diazaspiro[4.5]decane-8-carbothioic acid (2-methoxyphenyl)amide]
- inhibition at 10 µM (5-HT transporter): 63%
- inhibition at 10 µM (NA transporter): 56%

SMILES: CC(=O)c1cccc(NC(=S)N2CCC3(CC2)CN(Cc2cc(C)cc(C)c2)C(=O)O3)c1 [Example 7, 3-(3,5-dimethylbenzyl)-2-oxo-1-oxa-3,8-diazaspiro[4.5]decane-8-carbothioic acid (3-acetylphenyl)amide]
- inhibition at 10 µM (5-HT transporter): 55%
- inhibition at 10 µM (NA transporter): 50%

SMILES: Cc1ccccc1NC(=S)N1CCC2(CC1)CN(Cc1ccccc1)C(=O)O2 [Example 8, 3-benzyl-2-oxo-1-oxa-3,8-diazaspiro[4.5]decane-8-carbothioic acid o-tolylamide]
- inhibition at 10 µM (5-HT transporter): 62%
- inhibition at 10 µM (NA transporter): 50%

SMILES: CCOC(=O)CC(C)NC(=S)N1CCC2(CC1)CN(Cc1cccc(Br)c1)C(=O)O2 (stereo not drawn) [Example 9, 3-{[3-(3-bromobenzyl)-2-oxo-1-oxa-3,8-diazaspiro[4.5]decane-8-carbothioyl]amino}butanoic acid ethyl ester]
- inhibition at 10 µM (NA transporter): 81%

SMILES: C=CCNC(=S)N1CCC2(CC1)CN(Cc1ccc3ccccc3c1)C(=O)O2 [Example 10, 3-naphthalen-2-ylmethyl-2-oxo-1-oxa-3,8-diazaspiro[4.5]decane-8-carbothioic acid allylamide]
- inhibition at 10 µM (5-HT transporter): 50%
- inhibition at 10 µM (NA transporter): 78%

SMILES: CCOc1ccc(NC(=S)N2CCC3(CC2)CN(Cc2ccc(F)c(F)c2)C(=O)O3)cc1 [Example 13, 3-(3,4-difluorobenzyl)-2-oxo-1-oxa-3,8-diazaspiro[4.5]decane-8-carbothioic acid (4-ethoxyphenyl)amide]
- inhibition at 10 µM (5-HT transporter): 44%
- inhibition at 10 µM (NA transporter): 53%

SMILES: N#Cc1cccc(CN2CC3(CCN(C(=S)Nc4cc(Cl)cc(Cl)c4)CC3)OC2=O)c1 [Example 14, 3-(3-cyanobenzyl)-2-oxo-1-oxa-3,8-diazaspiro[4.5]decane-8-carbothioic acid (3,5-dichlorophenyl)amide]
- inhibition at 10 µM (5-HT transporter): 57%
- inhibition at 10 µM (NA transporter): 49%

SMILES: N#Cc1cccc(CN2CC3(CCN(C(=S)Nc4cccc(C(F)(F)F)c4)CC3)OC2=O)c1 [Example 15, 3-(3-cyanobenzyl)-2-oxo-1-oxa-3,8-diazaspiro[4.5]decane-8-carbothioic acid (3-trifluoromethylphenyl)amide]
- inhibition at 10 µM (5-HT transporter): 57%
- inhibition at 10 µM (NA transporter): 55%

SMILES: COc1ccc([N+](=O)[O-])cc1CN1CC2(CCN(C(=S)NCC3CCCO3)CC2)OC1=O (stereo not drawn) [Example 17, 3-(2-methoxy-5-nitrobenzyl)-2-oxo-1-oxa-3,8-diazaspiro[4.5]decane-8-carbothioic acid (tetrahydrofuran-2-ylmethyl)amide]
- inhibition at 10 µM (5-HT transporter): 50%
- inhibition at 10 µM (NA transporter): 45%

SMILES: O=C1OC2(CCN(C(=S)Nc3ccccc3)CC2)CN1Cc1ccccc1-c1ccccc1 [Example 18, 3-biphenyl-2-ylmethyl-2-oxo-1-oxa-3,8-diazaspiro[4.5]decan-8-carbothioic acid phenylamide]
- inhibition at 10 µM (NA transporter): 55%

SMILES: N#Cc1cccc(CN2CC3(CCN(C(=S)NCC4CCCCC4)CC3)OC2=O)c1 [Example 19, 3-(3-cyanobenzyl)-2-oxo-1-oxa-3,8-diazaspiro[4.5]decane-8-carbothioic acid cyclohexylmethylamide]
- inhibition at 10 µM (5-HT transporter): 69%
- inhibition at 10 µM (NA transporter): 48%

SMILES: CC(=O)c1cccc(NC(=S)N2CCC3(CC2)CN(Cc2ccccc2F)C(=O)O3)c1 [Example 20, 3-(2-fluorobenzyl)-2-oxo-1-oxa-3,8-diazaspiro[4.5]decane-8-carbothioic acid (3-acetylphenyl)amide]
- inhibition at 10 µM (NA transporter): 48%

SMILES: CCOc1ccc(NC(=O)N2CCC3(CC2)CN(Cc2ccccc2F)C(=O)O3)cc1 [Example 24, 3-(2-fluorobenzyl)-2-oxo-1-oxa-3,8-diazaspiro[4.5]decane-8-carboxylic acid (4-ethoxyphenyl)amide]
- inhibition at 10 µM (NA transporter): 58%

SMILES: Cc1ccc(CN2CC3(CCN(C(=O)Nc4ccc(C)c([N+](=O)[O-])c4)CC3)OC2=O)cc1 [Example 27, 3-(4-methylbenzyl)-2-oxo-1-oxa-3,8-diazaspiro[4.5]decane-8-carboxylic acid (4-methyl-3-nitrophenyl)amide]
- inhibition at 10 µM (5-HT transporter): 62%
- inhibition at 10 µM (NA transporter): 68%

SMILES: O=C(NCc1ccc(F)cc1)N1CCC2(CC1)CN(Cc1ccc(F)c(F)c1)C(=O)O2 [Example 28, 3-(3,4-difluorobenzyl)-2-oxo-1-oxa-3,8-diazaspiro[4.5]decane-8-carboxylic acid 4-fluorobenzylamide]
- inhibition at 10 µM (5-HT transporter): 45%
- inhibition at 10 µM (NA transporter): 53%

SMILES: Cc1ccc(NC(=O)N2CCC3(CC2)CN(Cc2ccc(F)c(F)c2)C(=O)O3)cc1[N+](=O)[O-] [Example 34, 3-(3,4-difluorobenzyl)-2-oxo-1-oxa-3,8-diazaspiro[4.5]decane-8-carboxylic acid (4-methyl-3-nitrophenyl)amide]
- inhibition at 10 µM (NA transporter): 41%

SMILES: O=C(Nc1ccc(Cl)c(C(F)(F)F)c1)N1CCC2(CC1)CN(Cc1ccccc1)C(=O)O2 [Example 37, 3-benzyl-2-oxo-1-oxa-3,8-diazaspiro[4.5]decane-8-carboxylic acid (4-chloro-3-trifluoromethylphenyl)amide]
- inhibition at 10 µM (NA transporter): 47%

SMILES: O=C(NCCc1ccccc1)N1CCC2(CC1)CN(Cc1ccccc1C(F)(F)F)C(=O)O2 [Example 49, 2-oxo-3-(2-trifluoromethylbenzyl)-1-oxa-3,8-diazaspiro[4.5]decane-8-carboxylic acid phenethylamide]
- inhibition at 10 µM (NA transporter): 48%

SMILES: O=C(Nc1cccc(F)c1)N1CCC2(CC1)CN(Cc1ccccc1)C(=O)O2 [Example 60, 3-benzyl-2-oxo-1-oxa-3,8-diazaspiro[4.5]decane-8-carboxylic acid (3-fluorophenyl)amide]
- inhibition at 10 µM (NA transporter): 58%

SMILES: Cc1ccc(CN2CC3(CCN(CC(=O)Nc4ccc(S(=O)(=O)Nc5cc(Cl)cc(Cl)c5)cc4)CC3)OC2=O)cc1 [Example 75, N-[4-(3,5-dichlorophenylsulfamoyl)phenyl]-2-[3-(4-methylbenzyl)-2-oxo-1-oxa-3,8-diazaspiro[4.5]dec-8-yl]acetamide]
- inhibition at 10 µM (NA transporter): 67%

SMILES: COc1ccc([N+](=O)[O-])cc1CN1CC2(CCN(C(=O)Cc3ccc(OC)c(OC)c3)CC2)OC1=O [Example 150, 8-[2-(3,4-dimethoxyphenyl)acetyl]-3-(2-methoxy-5-nitrobenzyl)-1-oxa-3,8-diazaspiro[4.5]decan-2-one]
- inhibition at 10 µM (5-HT transporter): 84%

SMILES: N#Cc1ccccc1CN1CC2(CCN(C(=O)c3ccc([N+](=O)[O-])cc3Cl)CC2)OC1=O [Example 151, 2-[8-(2-chloro-4-nitrobenzoyl)-2-oxo-1-oxa-3,8-diazaspiro[4.5]dec-3-ylmethyl]benzonitrile]
- inhibition at 10 µM (5-HT transporter): 71%

Source: patent US8153795B2, “Substituted 1-oxa-3,8-diazaspiro[4.5]-decan-2-one-compounds and the use thereof for producing drugs” (Gruenenthal GmbH, priority 2005, dated 2012)
